{"source": "patent US20230346831A1", "about": "“METHODS FOR TREATING […] USING LOW DOSE CARBON MONOXIDE” (priority 2020, published 2023)", "system": "MDA-MB-231/TGL cells", "experiment": "metabolomic assay (polar metabolite profiling, mass spectrometry)", "assay_type": "cell-based, human", "conditions": "MDA-MB-231/TGL cells treated with CO (250 ppm); replicates CO 1-3", "procedure": "Cells were seeded in a 10 cm cell culture plate with DMEM containing 10% FBS, 0.2 mM L-glutamine and 1% penicillin/streptomycin. After 16 hours of incubation, metabolites were extracted from the cells using 80% methanol. The remaining steps were carried out with no change according to the methods of Goncalves et al, PNAS, 115:4, E743-E752 (2018). All data analyses were done using MetaboAnalyst.\n7 × 10^6 cells were seeded in 10-cm cell culture plates with DMEM containing 10% FBS, 0.2 mM L-glutamine and 1% penicillin/streptomycin. Additionally, MCF7/TGL/pQ was cultured in media containing 0.5 µgml^-1 puromycin and 25 mM HEPES. After 16 hours of incubation, metabolites were extracted from the cells using 80% methanol. The remaining steps were carried out by Weill Cornell Medicine Proteomics and Metabolomics Core Facility according to M. D. Goncalves et al., Proc Natl Acad Sci USA 115, E743-E752 (2018). All data analyses were done using MetaboAnalyst 4.0 (www.metaboanalyst.ca/).\nTo investigate whether 250 ppm CO mimics hypoxia, the HiF1α protein levels were examined in CO treated MCF7/TGL and MDA-MB-231/TGL cells. […] To determine whether 250 ppm CO affects metabolism, polar metabolites were profiled using two breast cancer cell lines, MCF7/TGL and MDA-MB-231/TGL (FIGS. 7-9).", "note": "Where “and” joins values, the source holds several entries; their conditions need not be identical. Equal values may be shown once."}
{"smiles": "[C-]#[O+]", "note": "[CO, Carbon monoxide]", "values": [{"measurement": "Peak Height of metabolite intensity: L-Aspartic acid (HMDB00191)", "result": "9,529,167 and 11,274,240 and 16,105,810"}, {"measurement": "Peak Height of metabolite intensity: L-Carnitine (HMDB00062)", "result": "180,708,600 and 186,528,100 and 206,022,400"}, {"measurement": "Peak Height of metabolite intensity: L-Cystathionine (HMDB00099)", "result": "371,785 and 449,627 and 589,036"}, {"measurement": "Peak Height of metabolite intensity: L-Dihydroorotic acid (HMDB03349)", "result": "281,053 and 429,139 and 448,915"}, {"measurement": "Peak Height of metabolite intensity: L-Glutamic acid (HMDB00148)", "result": "655,681,000 and 727,466,400 and 916,546,500"}, {"measurement": "Peak Height of metabolite intensity: L-Glutamine (HMDB00641)", "result": "1,601,450,000 and 1,636,785,000 and 1,523,599,000"}, {"measurement": "Peak Height of metabolite intensity: L-Histidine (HMDB00177)", "result": "120,776,800 and 113,578,300 and 158,867,000"}, {"measurement": "Peak Height of metabolite intensity: L-Isoleucine (HMDB00172)", "result": "271,615,500 and 275,153,400 and 327,851,400"}, {"measurement": "Peak Height of metabolite intensity: L-Kynurenine (HMDB00684)", "result": "280,930 and 306,374 and 392,315"}, {"measurement": "Peak Height of metabolite intensity: L-Lactic acid (HMDB00190)", "result": "289,904,000 and 340,883,500 and 383,011,600"}, {"measurement": "Peak Height of metabolite intensity: L-Leucine (HMDB00687)", "result": "283,061,200 and 273,188,600 and 323,263,900"}, {"measurement": "Peak Height of metabolite intensity: L-Lysine (HMDB00182)", "result": "24,306,150 and 24,075,250 and 28,401,380"}, {"measurement": "Peak Height of metabolite intensity: L-Methionine (HMDB00696)", "result": "84,626,580 and 79,234,880 and 99,088,640"}, {"measurement": "Peak Height of metabolite intensity: L-Palmitoylcarnitine (HMDB00222)", "result": "73,260 and 167,693 and 194,186"}, {"measurement": "Peak Height of metabolite intensity: L-Phenylalanine (HMDB00159)", "result": "221,726,300 and 225,785,500 and 288,325,000"}, {"measurement": "Peak Height of metabolite intensity: L-Proline (HMDB00162)", "result": "612,301,800 and 622,349,000 and 718,183,500"}, {"measurement": "Peak Height of metabolite intensity: L-Serine (HMDB00187)", "result": "47,600,670 and 48,117,350 and 49,703,860"}, {"measurement": "Peak Height of metabolite intensity: L-Threonine (HMDB00167)", "result": "137,793,200 and 134,164,900 and 175,180,900"}, {"measurement": "Peak Height of metabolite intensity: L-Tryptophan (HMDB00929)", "result": "29,250,240 and 30,006,710 and 37,673,960"}, {"measurement": "Peak Height of metabolite intensity: L-Tyrosine (HMDB00158)", "result": "62,958,740 and 63,148,990 and 80,943,860"}, {"measurement": "Peak Height of metabolite intensity: L-Valine (HMDB00883)", "result": "112,753,800 and 120,589,500 and 133,489,100"}, {"measurement": "Peak Height of metabolite intensity: Malic acid (HMDB00744)", "result": "185,995,600 and 208,411,100 and 232,110,400"}, {"measurement": "Peak Height of metabolite intensity: Mannitol (HMDB00765)", "result": "9,124,205 and 9,515,589 and 10,944,240"}, {"measurement": "Peak Height of metabolite intensity: Methionine sulfoxide (HMDB02005)", "result": "1,343,863 and 1,483,506 and 1,747,311"}, {"measurement": "Peak Height of metabolite intensity: Methylimidazoleacetic acid (HMDB02820)", "result": "1,358,938 and 1,418,950 and 1,508,563"}, {"measurement": "Peak Height of metabolite intensity: Myoinositol (HMDB00211)", "result": "29,719,830 and 34,248,940 and 40,470,300"}, {"measurement": "Peak Height of metabolite intensity: N6,N6,N6-Trimethyl-L-lysine (HMDB01325)", "result": "1,450,139 and 1,666,314 and 1,913,626"}, {"measurement": "Peak Height of metabolite intensity: N6-Acetyl-L-lysine (HMDB00206)", "result": "127,774 and 112,788 and 139,608"}, {"measurement": "Peak Height of metabolite intensity: N-Acetyl-L-alanine (HMDB00766)", "result": "3,499,773 and 3,556,484 and 4,596,263"}, {"measurement": "Peak Height of metabolite intensity: N-Acetyl-L-aspartic acid (HMDB00812)", "result": "82,644,790 and 91,504,070 and 102,958,000"}, {"measurement": "Peak Height of metabolite intensity: N-Acetyl-L-methionine (HMDB11745)", "result": "2,318,960 and 1,894,539 and 2,276,345"}, {"measurement": "Peak Height of metabolite intensity: N-Acetyl-glucosamine 1-phosphate (HMDB01367)", "result": "1,300,461 and 800,586 and 850,336"}, {"measurement": "Peak Height of metabolite intensity: N-Acetylasparagine (HMDB06028)", "result": "90,904 and 92,805 and 102,592"}, {"measurement": "Peak Height of metabolite intensity: N-Acetylaspartylglutamic acid (HMDB01067)", "result": "473,464 and 613,919 and 690,837"}, {"measurement": "Peak Height of metabolite intensity: N-Acetylglutamic acid (HMDB01138)", "result": "7,524,119 and 8,837,337 and 8,010,711"}, {"measurement": "Peak Height of metabolite intensity: N-Acetylglutamine (HMDB06029)", "result": "1,923,159 and 2,058,882 and 2,006,294"}, {"measurement": "Peak Height of metabolite intensity: N-Acetylornithine (HMDB03357)", "result": "261,750 and 259,387 and 327,139"}, {"measurement": "Peak Height of metabolite intensity: N-Acetylputrescine (HMDB02064)", "result": "5,287,508 and 7,257,189 and 5,943,667"}, {"measurement": "Peak Height of metabolite intensity: N-Formyl-L-methionine (HMDB01015)", "result": "2,242,009 and 2,343,563 and 2,318,203"}, {"measurement": "Peak Height of metabolite intensity: NAD (HMDB00902)", "result": "17,332,970 and 21,051,080 and 23,992,650"}, {"measurement": "Peak Height of metabolite intensity: NADH (HMDB01487)", "result": "583,067 and 148,307 and 116,715"}, {"measurement": "Peak Height of metabolite intensity: NADP (HMDB00217)", "result": "120,286 and 98,434 and 96,478"}, {"measurement": "Peak Height of metabolite intensity: NADPH (HMDB00221)", "result": "71,492 and 67,909 and 76,928"}, {"measurement": "Peak Height of metabolite intensity: Niacinamide (HMDB01406)", "result": "1,982,720 and 1,686,510 and 1,871,343"}]}
